Consider nine compounds from patent EP0505220A1, “New compounds for use in the treatment of cancer” (JARMAN, Michael, priority 1991, dated 1992).

Series [1] relates to PC6 Murine plasmacytoma. The experiment in a line: Activity in vitro towards PC6 cell line. The conditions noted are these: for IC50: PC-6, PC6 Murine plasmacytoma, at least in duplicate, read-out: IC₅₀ PC6. Format: cell-based. The protocol: (§1) Results expressed as µM (IC₅₀ values). All experiments were conducted at least in duplicate.
The test system of series [2] is L-1210 murine lymphocytic leukaemia. In words: Activity in vitro towards L-1210 cell line. Format: cell-based. The conditions noted are these: Mus musculus, L1210, at least in duplicate, read-out: IC₅₀ L-1210. The protocol:
as §1

Series [3] relates to GCT human testicular germ cell tumour cell line. The experiment in a line: Activity in vitro towards GCT cell line. Format: cell-based. The conditions noted are these: at least in duplicate, read-out: IC₅₀ GCT. The protocol:
as §1

Series [4] deals with GCT/CIS R 6-fold platinum resistant variant of above. In words: Activity in vitro towards GCT/CIS R cell line. Format: cell-based. As to conditions: Homo sapiens; 6-fold platinum resistant variant of GCT; at least in duplicate; read-out: IC₅₀ GCT/CIS R. The protocol:
as §1

In series [5] the test system is human ovarian tumour cell lines. The experiment in a line: Activity in vitro towards ovarian cell lines. The conditions noted are these: Table 4 (image). Format: cell-based.
Series [6] deals with cisplatin-resistant cell-lines. In words: Activity in vitro towards cisplatin-resistant cell lines. Format: cell-based, human. As to conditions: Table 4 (image). From the text: Of particular interest is that compounds (5) and (13) show high activity against cisplatin-resistant cell-lines.
The test system of series [7] is ADJ/PC6 tumour. The experiment in a line: Antitumour activity towards the ADJ/PC6 tumour in mice. Format: in vivo. The conditions noted are these: for Highest % inhibition: dose (mg/kg).
Series [8] can be described thus: Toxicity (LD50) in the ADJ/PC6 mouse study. As to conditions: in vivo.
Series [9] in a line: Stability of the hydroxymethyl function in human plasma (HPLC). Format: in vitro ADME. The conditions noted are these: human plasma at 37°C, 100 µg/ml; read-out: half-life values for the release of product (9) in human plasma. Here is the method: Stability Studies. The influence of the trifluoromethyl substituent on the stability of the hydroxymethyl function under simulated physiological conditions was determined for compound (10) containing contiguous hydroxymethyl and […] functions. General Procedure (for 10). To fresh human plasma (9.9 ml) pre-warmed to 37°C was added a solution of the compound to be studied in dimethylsulphoxide (0.1 ml; 10mg/ml) to give a final concentration of 100 µg/ml. At intervals of 0, 5, 10, 15, 20, 30, 40, 50, 60, 75, 90, 105 and 120 min, aliquots (0.5 ml) were withdrawn and added to ice-cold MeOH (1ml). After centrifugation at 4°C the supernatants were placed in cooled vials on a cold plate (3°C) and aliquots (25 µl) analysed by HPLC using an autosampler. The column used was a C6 (Spherisorb) 15cm x 4.6 mm with a precolumn, and was eluted with MeOH:0.05 M aq. NH₄HCO₃, 55:45, at a flow rate of 1.5 ml min⁻¹. Products were monitored by absorbance at 225 nm. Retention times were: for (10) 11.0 min and for its breakdown product (9) 9.6 min. […] Biological Results. The anti-tumour activities of the compounds of the invention against ADJ/PC6 tumour in mice and against human ovarian tumour cell lines were compared with that of trimelamol (1).

In series [10] the test system is H69 human small cell lung cancer cell line. The experiment in a line: Activity in vitro towards H69 cell line. Format: cell-based. The conditions noted are these: NCI-H69, at least in duplicate, read-out: IC₅₀ H69. Here is the method:
as §1

For series [11] the following is noted: Judson et al. 1989; cited from earlier work.

A word on the LD50: it is the dose at which mortality reaches 50%. By half-life is commonly meant how long it takes for the measured level to halve.

As to `C#CCN(CO)c1nc(N(CO)CC#C)nc(N(CO)CC#C)n1` [Compound 13, 2,4,6-Tris[(hydroxymethyl)(propargyl)amino]-1,3,5-triazine], the IC50 in [1] was 36.8 µM; in series [2], 50.7 µM; in series [3], 48.9 µM; in series [4], 41.8 µM. The “potency in a variety of ovarian cell lines compared with (1)” value in series [5] was “virtually equipotent with (1)”. Also, the “activity against cisplatin-resistant cell-lines” value in series [6] is “high activity”. Also, the Highest % inhibition entry in series [7] is given as “none (none - less than 40%)”. The compound also had an LD50 in [8] of 280 mg/kg.
For the compound `CN(C)c1nc(N(C)C)nc(N(C)CO)n1` [N-hydroxymethylpentamethylmelamine, reference compound], the half-life in series [9] worked out at 30 min.
With `CN(CO)c1nc(N(C)CO)nc(N(C)CO)n1` [Compound 1, 2,4,6-tris{(hydroxymethyl)(methyl)amino}-1,3,5-triazine, reference compound], the “potency against the ADJ/PC6 tumour cell line in vitro relative to the other compounds” value in series [1] ((1) versus (5), (6) and (13)) is given as “greater than 3 fold”. In addition, the IC50 was found to be 10.1 µM in series [1]; 41.7 µM in series [2]; 8.7 µM in [10]; 24.3 µM in series [3]; 25.9 µM in series [4]. Further, the “Therapeutic Index LD50/ED90” value in series [7] is 3.1. In addition, the ED90 in series [7] (Mus musculus) was determined as 45 mg/kg. In addition, the Highest % inhibition in series [7] is given as 96 (5 x 100) %. Also, the half-life in humans entry in series [11] is given as “short”. The LD50 in [8] stood at 140 mg/kg.
For the compound `FC(F)(F)CNc1nc(NCC(F)(F)F)nc(NCC(F)(F)F)n1` [Compound 3, 2,4,6-Tris[(2,2,2-Trifluoroethyl)amino]-1,3,5-triazine], the Highest % inhibition entry in [7] is on record as “none^b (none - less than 40%)”. Besides, the LD50 in [8] turned out to be 71 mg/kg.
Regarding `OCOCN(CC(F)(F)F)c1nc(N(CO)CC(F)(F)F)nc(N(CO)CC(F)(F)F)n1` [Compound 6, 2-[([hydroxymethoxy]methyl)(2,2,2-trifluoroethyl)amino]-4,6-bis(hydroxymethyl)(2,2,2-trifluoroethyl)-amino-1,3,5-triazine], the IC50 in series [1] came to 34.4 µM; in series [3], 25.8 µM; in series [4], 23.7 µM. In addition, in series [7], the Highest % inhibition was 65 (5 x 12.5) %. Also, the LD50 in [8] amounted to 280 mg/kg.
As to `CN(C)c1nc(N(C)C)nc(N(CO)CC(F)(F)F)n1` [Compound 10, 2,4-Bis(Dimethylamino)-6-(hydroxymethyl)(2,2,2,trifluoroethyl)-amino-1,3,5-triazine], in series [9], the half-life amounted to 45 min.
Turning to `OCN(CC(F)(F)F)c1nc(N(CO)CC(F)(F)F)nc(N(CO)CC(F)(F)F)n1` [Compound 5, 2,4,6-Tris[(Hydroxymethyl)(2,2,2-trifluoroethyl)amino]-1,3,5-triazine], the IC50 in series [1] turned out to be 38.2 µM; in series [2] it was 48.6 µM. Moreover, the “potency in a variety of ovarian cell lines compared with (1)” value in [5] is “virtually equipotent with (1)”. For the same compound, the “activity against cisplatin-resistant cell-lines” value in [6] is recorded as “high activity”.
“2-(Hydroxyethyl)(2,2,2-trifluoroethyl)amino-4-methyl-6-(2,2,2-trifluoroethyl)amino-1,3,5-triazine [Compound 7]”: the Highest % inhibition in series [7] is reported as 56 (5 x 25) %.
Turning to `OCN(CC(F)(F)F)c1nc(NCC(F)(F)F)nc(NCC(F)(F)F)n1` [Compound 4, 2-(Hydroxymethyl)(2,2,2-trifluoroethyl)amino-4,6-bis[(2,2,2-trifluoroethyl)amino]-1,3,5-triazine], the Highest % inhibition in series [7] is reported as 40 (5 x 50) %. This compound showed an LD50 in series [8] of 117 mg/kg.
